pIC50: −log10 of the molar value.
Key:
[1] = molecular target: hydrilla PDS Arg^304 → Serine (Hydrilla verticillata, UniProt Q66PY0, R304S); assay: Cross resistance to bleaching herbicides, in vitro PDS inhibition, non-His-tagged (Table 2); assay type: biochemical; conditions: Serine at 304; construct in frame with LacZalpha-ccdB, non-His-tagged; read-out: I50
Protocol: (§1) The expression constructs in Table 2 were derived from an original clone of the susceptible PDS gene from Hydrilla and then the Arg^304 was mutated to the listed amino acid. Expression was under the control of the lac promoter but in frame with the initiation codon of the LacZalpha-ccdB gene in the pCR4-TOPO vector (Invitrogen Inc., CA, Cat. #K4575-01).
(§2) All mutagenesis was performed, unless stated otherwise, using the TOPO-vector containing the wildtype (H4) PDS-sequence, which was extracted from an overnight culture with the Qiagen Plasmid Prep Kit as described above. The amount of the extracted plasmid was diluted to 10 ng/μl and used as template in a mutagenesis-procedure using the QuikChange Site-directed Mutagenesis Kit (Stratagene, Calif., #200518). The design of the mutagenesis-primers was conducted according to the manufacturers protocol to enable the specific change of Arg^304-codon to code for the desired amino acid. Primers (purchased from MWG-Biotech) and their introduced amino acid change are listed below with the changed codon underlined:
(§3) The reactions were performed according to the manufacturers protocol. Reactions were set up in MicroAmp-tubes on ice with 38 μl ddH2O, 5 μl 10× reaction buffer, 2 μl plasmid (10 ng/μl), 1.25 μl forward-mutagenesis primer (100 ng/μl), 1.25 μl of reverse mutagenesis primer (100 ng/μl), 1 μl dNTP-mix and 1 μl PfuTurboDNA polymerase (2.5 U/μl). The reactions were placed in a PE 9700 thermal cycler and heated to 95° C. for 30 sec followed by 12 rounds at 95° C. for 30 sec, 55° C. for 1 min and 68° C. for 12 min. The PCR was followed by a DpnI-digestion and transformation in XL1-Blue supercompetent cells as described in the manual. 4-6 resulting colonies were grown overnight in LB-medium with kanamycin and plasmid DNA was isolated as described above. The plasmid was used as template for sequencing with M13 and internal PDS-primers as described above on a LiCOR-system. Sequences were assembled and analyzed using Seqman. Introduced mutations were identified and plasmids carrying the desired mutation(s) were transferred into competent TOP10-cells, using the transformation protocol from the TOPO TA Cloning Kit. Resulting colonies were grown overnight in Wu-broth with kanamycin, aliquoted and stored at −80° C. until further use. 1 ml of Wu-cultures was used to start 1-L LB-cultures with kanamycin as described before, to express active PDS-enzyme for testing as described.
(§4) Phytoene desaturase activity and its inhibition by herbicides was determined using an in vitro system using components derived from the in vivo production of phytoene and phytoene desaturase proteins. All mutations described in Examples 3 and 4 were tested. […] The clones were used for the heterologous expression of Hydrilla-PDS-enzyme. In particular, bacterial cultures were grown from single colonies overnight in Wu-broth (6.27 g/L K2HPO4, 1.8 g/L KH2PO4, 0.5 g/L Na-citrate, 0.9 g/L (NH4)2SO4, 10 g/L tryptone, 5 g/L yeast extract, 10 g/L NaCl, 44 ml/L glycerol, 0.1 mM MgSO4, pH 7.2) with kanamycin. 1-mL was aliquoted in centrifuge tube and stored at −80° C. For expression, 1 L LB-medium with kanamycin was inoculated with 1-mL Wu-culture and grown for 24 h at 37° C. to stationary phase with shaking at 200 rpm. The cells were collected by centrifugation at 2000×g. All of the following steps were done at 4° C. unless otherwise noted. Active soluble PDS enzyme was extracted by lysing the transformed E. coli cells using a French Press at 20,000 psi in assay buffer consisting of 100 mM Tris-HCl, pH 7.2, 10 mM magnesium-chloride, 0.1 mM NADP, 0.1 mM FAD, 10 mM cysteine, 5 mM DTT, 1 mM aminocaproic acid, and 1 μg/ml leupeptin. The soluble fraction containing PDS activity was obtained by centrifugation for 10 min at 1200×g. After 24 h they were centrifuged down and used in PDS enzyme activity assays as described below.

[2] = system: Hydrilla PDS Arg^304 → Aspartic acid; assay: Fluridone enzyme inhibition assay, non-His-tagged PDS (Table 1); assay type: biochemical, Hydrilla verticillata; conditions: relative to Arginine
Protocol: as §1, with “1” for “2”, “[…]” for “but”
as §2, §3, §4

[3] = system: Hydrilla PDS Arg^304 → Isoleucine; assay: as above; assay type: biochemical, Hydrilla verticillata; conditions: relative to Arginine
Protocol: as §1, with “1” for “2”, “[…]” for “but”
as §2, §3, §4

[4] = system: Hydrilla PDS Arg^304 → Methionine; assay: as above; assay type: biochemical, Hydrilla verticillata; conditions: relative to Arginine
Protocol: as §1, with “1” for “2”, “[…]” for “but”
as §2, §3, §4

[5] = system: Hydrilla PDS Arg^304 → Glutamic acid; assay: as above; assay type: biochemical, Hydrilla verticillata; conditions: relative to Arginine
Protocol: as §1, with “1” for “2”, “[…]” for “but”
as §2, §3, §4

[6] = system: Hydrilla PDS Arg^304 → Valine; assay: as above; assay type: biochemical, Hydrilla verticillata; conditions: relative to Arginine
Protocol: as §1, with “1” for “2”, “[…]” for “but”
as §2, §3, §4

[7] = system: Hydrilla PDS Arg^304 → Tyrosine; assay: as above; assay type: biochemical, Hydrilla verticillata; conditions: relative to Arginine
Protocol: as §1, with “1” for “2”, “[…]” for “but”
as §2, §3, §4

[8] = system: Hydrilla PDS Arg^304 → Threonine; assay: as above; assay type: biochemical, Hydrilla verticillata; conditions: relative to Arginine
Protocol: as §1, with “1” for “2”, “[…]” for “but”
as §2, §3, §4

[9] = system: Hydrilla PDS Arg^304 → Alanine; assay: as above; assay type: biochemical, Hydrilla verticillata; conditions: relative to Arginine
Protocol: as §1, with “1” for “2”, “[…]” for “but”
as §2, §3, §4

[10] = system: Hydrilla PDS Arg^304 → Glutamine; assay: as above; assay type: biochemical, Hydrilla verticillata; conditions: relative to Arginine
Protocol: as §1, with “1” for “2”, “[…]” for “but”
as §2, §3, §4

[11] = system: Hydrilla PDS Arg^304 → Lysine; assay: as above; assay type: biochemical, Hydrilla verticillata; conditions: relative to Arginine
Protocol: as §1, with “1” for “2”, “[…]” for “but”
as §2, §3, §4

[12] = system: Hydrilla PDS Arg^304 → Asparagine; assay: as above; assay type: biochemical, Hydrilla verticillata; conditions: relative to Arginine
Protocol: as §1, with “1” for “2”, “[…]” for “but”
as §2, §3, §4

[13] = system: Hydrilla PDS Arg^304 → Phenyalanine; assay: as above; assay type: biochemical, Hydrilla verticillata; conditions: relative to Arginine
Protocol: as §1, with “1” for “2”, “[…]” for “but”
as §2, §3, §4

[14] = system: Hydrilla PDS Arg^304 → Glycine; assay: as above; assay type: biochemical, Hydrilla verticillata; conditions: relative to Arginine
Protocol: as §1, with “1” for “2”, “[…]” for “but”
as §2, §3, §4

[15] = molecular target: Hydrilla PDS Arg^304 Arginine (wildtype) (Hydrilla verticillata, UniProt Q66PY0); assay: as above; assay type: biochemical; conditions: Arginine at 304 (reference)
Protocol: as §1, with “1” for “2”, “[…]” for “but”
as §2
The reactions were performed according to the manufacturers protocol. […] Sequences were assembled and analyzed using Seqman. […]
Phytoene desaturase activity and its inhibition by herbicides was determined using an in vitro system using components derived from the in vivo production of phytoene and phytoene desaturase proteins. […]

[16] = system: Synechocystis PDS with mutation corresponding to Leu^542→Arg; conditions: prior work; cited from earlier work

Chain of hydrilla PDS Arg^304 → Serine (Q66PY0 1-580 R304S): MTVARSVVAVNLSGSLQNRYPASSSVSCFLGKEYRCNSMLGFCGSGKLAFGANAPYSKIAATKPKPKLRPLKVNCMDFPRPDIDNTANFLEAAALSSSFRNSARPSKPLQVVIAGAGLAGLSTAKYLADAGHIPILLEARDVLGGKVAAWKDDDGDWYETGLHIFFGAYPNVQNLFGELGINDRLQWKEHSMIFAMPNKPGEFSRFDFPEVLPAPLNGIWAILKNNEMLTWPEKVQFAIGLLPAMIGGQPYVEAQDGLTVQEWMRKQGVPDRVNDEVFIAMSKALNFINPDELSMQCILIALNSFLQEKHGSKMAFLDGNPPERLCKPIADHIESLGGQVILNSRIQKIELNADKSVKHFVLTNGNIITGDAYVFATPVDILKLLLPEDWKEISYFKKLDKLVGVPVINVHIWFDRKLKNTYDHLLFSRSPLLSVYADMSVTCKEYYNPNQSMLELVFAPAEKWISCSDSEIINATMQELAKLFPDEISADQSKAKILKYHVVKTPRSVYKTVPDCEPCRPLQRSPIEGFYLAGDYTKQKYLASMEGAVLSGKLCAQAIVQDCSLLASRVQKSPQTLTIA
Chain of Hydrilla PDS Arg^304 Arginine (wildtype) (Q66PY0 1-580): as the sequence (Q66PY0 1-580 R304S) above, with S304R counted along it

## CNc1cnn(-c2cccc(C(F)(F)F)c2)c(=O)c1Cl [Norflurazon]
[1]
  pIC50: 4.26

## CNC1=C(c2cccc(C(F)(F)F)c2)C(=O)C(c2ccccc2)O1 (centres unmarked) [Flurtamone]
[1]
  pIC50: 5.23

## CCC(Oc1ccc(F)c(C(F)(F)F)c1)C(=O)NCc1ccccc1 (centres unmarked) [Beflubutamid]
[1]
  pIC50: 5.59

## O=C1C(Cl)C(CCl)CN1c1cccc(C(F)(F)F)c1 (centres unmarked) [Fluorochloridone]
[1]
  pIC50: 4.64

## O=C(Nc1ccc(F)cc1F)c1cccnc1Oc1cccc(C(F)(F)F)c1 [Diflufenican]
[1]
  pIC50: 5.96

## Fluridone
[2]
  R/S: 10
[3]
  R/S: 10
[4]
  R/S: 11.5
[5]
  R/S: 1.5
[6]
  R/S: 11
[7]
  R/S: 4
[8]
  R/S: 40
[9]
  R/S: 22.5
[10]
  R/S: 19
[11]
  R/S: 5
[12]
  R/S: 3.2
[13]
  R/S: 2.6
[14]
  R/S: 3.2
[15]
  R/S: 1
[16]
  resistance provided by the mutation: failed to provide resistance

Reference: US20110098180A1, “Herbicide-Resistant Plants, And Polynucleotides And Methods For Providing Same” (United States Department of Agriculture, priority 2002, published 2011)
